We go through five compounds from US7601373B2, “Equine feed product” (priority 2002, dated 2009).

The subject of assay [1] is poor performing racehorses. To be noted: six anaemic racehorses, within a matter of weeks; cited from earlier work.
The test system of assay [2] is thoroughbred yearlings. Kind of assay: Example Three: inorganic versus chelated copper with chelated zinc in feed supplement. It counts as in vivo, horse. To be noted: 100 mg/day copper and 300 mg/day chelated zinc in 100 g/day supplement, ten weeks, grass high in molybdenum. The method, then:
A trial was conducted on ten thoroughbred yearlings (six colts and four fillies) using optimum levels of copper and zinc. The horses were divided into two groups with five horses in each group. The trials were conducted over a period of ten weeks. During this period the horses were stabled, each horse was handwalked for one hour a day and put to grass for three hours a day.
The copper used in the feed supplement for the first group of five horses was inorganic copper, copper sulfate whilst the copper used in the oat-balancing feed supplement for the second group was chelated copper. The horses has an average body weight of 425 kg. The horses were fed a combined diet of Ryegrass Hay, Rolled Irish Oats, Cooked Flaxseed and the feed supplement.
In trial one, 100 g of the oat balancing feed supplement was fed to each horse daily. There was 100 mg of inorganic copper in present in the oat balancing feed supplement.
Group 1: 100 mg/day Inorganic Copper & 300 mg/day Chelated Zinc
In the second group the five horses were fed the same combined diet however the copper present in the feed supplement was chelated copper. Again there was 100 mg of copper present in 100 g of the oat balancing feed supplement.
Group 2: 100 mg/day Chelated Copper & 300 mg/day Chelated Zinc

Assay [3] has as its system foals, yearlings and adult horses. Kind of assay: Example Five: calcium feeding trials at various stages of development. It counts as in vivo, horse. As for the experimental part:
A number of trials were conducted on horses throughout various stages of development fed with varying levels of calcium. The first two trials were conducted on twelve foals over a nine month period. The trial began when the foals were aged three months. […] Each foal was fed 2.5 g of Calcium a day within a balanced diet for a period of three months. The Calcium dosage was then increased to 5.0 g a day for a further period of six months as the foals average weight had increased to 240 kg.
The third trial comprised a group of ten yearlings with average weight 425 kg body. The yearlings were fed 7.5 g of Calcium a day over a period of ten weeks. The fourth trial was conducted on adult horses with average body weight of 500 kg aged 18+ months. Each adult horse was fed 10.0 g of Calcium per day.

The subject of assay [4] is horses. Put plainly: Example Four: magnesium supplementation, Stress Tetany and performance. It counts as in vivo, horse. The source says:
Magnesium is considered to be an essential daily mineral in equine diets. A deficiency of magnesium in the diet in conjunction with any condition that will produce stress can lead to Stress Tetany. An example of a stress-causing condition is transportation of the horse over long distances. […] Some weeks later the same horse was transported to another location. The journey lasted approximately four hours.
Trials conducted where the quantity of magnesium introduced into the horse was varied from 2 g/day of magnesium oxide to 4 g/day of magnesium oxide.

In assay [5] the test system is horses. Kind of assay: Example One: amino acid feeding trial with varied lysine; PCV, haemoglobin, coat colour, racecourse performance. It counts as in vivo, horse. To be noted: 15 g/day lysine with 5 g/day methionine and 5 g/day threonine. As for the experimental part: Lysine, methionine and threonine are essential amino acids. Trials were conducted on eleven horses (eight geldings and three fillies) where the horses were randomly split into three groups. Two groups contained four horses and the third group contained three horses. The horses varied in age between three and eight years old with an average body weight of 500 kg. The Packed Cell Volumes (PCVs) and haemoglobin levels of each horse were tested. Visual observations such as coat colour and racecourse performances were also monitored. In these Example all three amino acids were administered to the horses together as all three amino acids are essential. The quantities of methionine and threonine were constant for each group whilst the quantity of lysine was varied between the groups. Oats are deficient in lysine therefore it is necessary to boost the horses intake of lysine while maintaining a constant level of methionine and threonine
Quantities of Amino Acid Administered to Horses Daily

Where only a bound is given, the exact number is not on record here.

Regarding `N[C@@H](Cc1cc(I)c(Oc2cc(I)c(O)c(I)c2)c(I)c1)C(=O)O` [Thyroxine], in assay [1], the red cell parameters entry is “all elevated”.

In the case of `O=S(=O)([O-])[O-].[Cu+2]` [Inorganic Copper, copper sulfate], in assay [2], the coat colour result is listed as “poor coat colour”, the red cell production result is recorded as “decreased red cell production” and the thrive result is listed as “lack of thrive”.

With `[Ca+2]` [Calcium], the “bone development, limb formation and weight gain” value in assay [3] (2.5 to 10.0 g/day Calcium according to age) is “clinically adequate bone development, correct limb formation and normal weight gain”. Also, in assay [3] (Foals 3-6 months, 2.5 g/day Calcium, 118 Kg at 3 months), the “Average weight at 6 months” value is recorded as 240 Kg at 6 months. Moreover, the “Average weight at 12 months” value in assay [3] (Foals 6-12 months, 5.0 g/day Calcium, 240 Kg at 6 months) is listed as 375 Kg at 12 months. Besides, the “Average weight at 18 months” value in assay [3] (Yearlings 12-18 months, 7.5 g/day Calcium, 375 Kg at 12 months) came out at 475 Kg at 18 months.

Take `[O]=[Mg]` [magnesium oxide]: in assay [4] (4 g/day of magnesium oxide (varied from 2 g/day to 4 g/day)), the performance result is recorded as “optimum performance”. Moreover, in assay [4] (magnesium oxide 4 g/day), the “temperament, weight and coat colour” value was “improvement in the temperament of the horse was observed in conjunction with weight gain and better coat colour”.

Turning to `NCCCC[C@H](N)C(=O)O` [lysine], in assay [5], the “coat colour and racecourse performance” value was “optimum coat colour and racecourse performance”. In assay [5] (average of horses, 500 kg), this compound had a PCV levels of more than 42 per cent per liter and a haemoglobin levels of more than 14 g per deciliter.
